Blank lines part the entries; values can stand above or below the compound they belong to. Active and inactive are the calls of the source.
Key:
[1] = biological target: Potassium voltage-gated channel subfamily KQT member 2 (Rattus norvegicus, UniProt O88943); experiment: retigabine-insensitive KCNQ2 potentiators, concentration-response, dose response, cell-based, retigabine-insensitive compounds (AID 2654); format: functional
[2] = Counterscreen for IDE inhibitors: Luminescence-based cell-based high throughput dose response assay to identify compounds that are cytotoxic to HEK cells. [Related pubchem assays: 434962 (Primary screen (IDE inhibitors in singlicate)), 449730 (Counterscreen (Cytotoxicity in triplicate)), 435028 (Confirmation (IDE inhibitors in triplicate)) …; format: functional; settings: HEK293
[3] = biological target: Insulin-degrading enzyme (Homo sapiens, UniProt P14735); experiment: Dose Response: Fluorescence polarization-based cell-based high throughput dose response assay for inhibitors of insulin-degrading enzyme (IDE). [Related pubchem assays: 434962 (Primary screen (IDE inhibitors in singlicate)), 449730 (Counterscreen (Cytotoxicity in triplicate)), 435028 (Confirmation (IDE inhibitors in triplicate)), 434984 (Summary …; format: functional
Chain of Insulin-degrading enzyme (P14735 whole entry): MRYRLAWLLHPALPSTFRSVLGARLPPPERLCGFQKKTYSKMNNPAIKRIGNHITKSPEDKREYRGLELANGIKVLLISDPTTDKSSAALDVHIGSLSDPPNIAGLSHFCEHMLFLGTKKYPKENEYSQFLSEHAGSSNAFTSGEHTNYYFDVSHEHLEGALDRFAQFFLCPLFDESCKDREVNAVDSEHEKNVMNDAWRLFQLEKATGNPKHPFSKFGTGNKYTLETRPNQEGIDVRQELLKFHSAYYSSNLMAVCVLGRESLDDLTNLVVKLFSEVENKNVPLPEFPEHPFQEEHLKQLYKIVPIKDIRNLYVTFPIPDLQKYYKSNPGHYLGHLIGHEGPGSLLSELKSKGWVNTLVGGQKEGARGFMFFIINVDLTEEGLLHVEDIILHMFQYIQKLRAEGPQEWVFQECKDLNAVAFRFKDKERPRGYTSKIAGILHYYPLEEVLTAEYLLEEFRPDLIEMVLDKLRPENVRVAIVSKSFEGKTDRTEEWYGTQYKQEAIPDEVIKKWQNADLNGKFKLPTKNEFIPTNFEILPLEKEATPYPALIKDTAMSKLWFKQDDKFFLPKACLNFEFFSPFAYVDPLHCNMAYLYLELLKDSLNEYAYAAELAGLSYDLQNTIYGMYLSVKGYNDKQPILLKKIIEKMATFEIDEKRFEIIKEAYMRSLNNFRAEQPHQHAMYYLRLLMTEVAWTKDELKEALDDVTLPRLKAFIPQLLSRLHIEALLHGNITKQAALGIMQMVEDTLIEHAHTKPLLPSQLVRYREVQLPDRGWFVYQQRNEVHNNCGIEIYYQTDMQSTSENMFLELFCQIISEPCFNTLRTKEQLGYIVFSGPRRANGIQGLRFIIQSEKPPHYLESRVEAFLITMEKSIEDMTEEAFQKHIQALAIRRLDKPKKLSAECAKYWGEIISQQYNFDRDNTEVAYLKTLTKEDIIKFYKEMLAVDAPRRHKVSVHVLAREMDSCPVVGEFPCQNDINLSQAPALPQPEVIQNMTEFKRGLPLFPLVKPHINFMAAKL

[4] = HEp-2 cell cytotoxicity, dose response, cytotoxicity control for RSV inhibitor project, HTS (AID 2410); format: functional; settings: human respiratory syncytial virus
[5] = system: Streptococcus sp. 'group A'; experiment: growth inhibition of control SK(-) GAS strain, dose response, counter-screen for streptokinase expression inhibitor project, luminescence, kanamycin, BacTiterGlo, confirmation (AID 1900); format: functional, organism-based
[6] = system: Streptococcus; experiment: Group A Streptococcus viability loss, dose response, counter-screen for streptokinase expression inhibitor project, luminescence, BacTiterGlo (AID 1915); format: functional, organism-based;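 further: potency for reduction of bacterial viability or growth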
[7] = Luminescence Cell-Based Dose Retest to Confirm Inhibitors of Cancer Stem Cells. [Related pubchem assays (depositor defined):AID2717, AID2721]; format: functional; settings: Homo sapiens
[8] = biological target: X-box-binding protein 1 (Homo sapiens, UniProt P17861); format: functional, Cricetulus griseus;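 further: confirmatory dose-response counter-screen serving a CHOP assay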
Chain of X-box-binding protein 1 (P17861 whole entry): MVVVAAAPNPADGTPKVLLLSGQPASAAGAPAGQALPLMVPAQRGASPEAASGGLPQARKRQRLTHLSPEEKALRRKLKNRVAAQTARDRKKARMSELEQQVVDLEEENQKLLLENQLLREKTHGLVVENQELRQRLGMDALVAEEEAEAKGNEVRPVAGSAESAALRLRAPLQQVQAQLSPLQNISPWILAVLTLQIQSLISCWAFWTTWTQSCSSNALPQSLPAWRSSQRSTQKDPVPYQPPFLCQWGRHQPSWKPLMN

[9] = biological target: Cytochrome P450 2C19 (Homo sapiens, UniProt P33261); experiment: qHTS Assay for Inhibitors and Substrates of Cytochrome P450 2C19. [Related pubchem assays: 410 ]; format: ADME; settings: read-out: Potency
[10] = biological target: Cytochrome P450 2C9 (Homo sapiens, UniProt P11712); settings: Potency
[11] = biological target: Wee1-like protein kinase (Homo sapiens, UniProt P30291); experiment: G2/M cell cycle arrest in HeLa, late-stage follow-up, mechanism study for Wee1 degradation inhibitor project, FACS, panel member Wee1 Degradation (AID 2088)
[12] = biological target: G2/mitotic-specific cyclin-B1 (Homo sapiens, UniProt P14635); experiment: G2/M cell cycle arrest in HeLa, late-stage follow-up, mechanism study for Wee1 degradation inhibitor project, FACS, panel member Cyclin B Degradation (AID 2088)
[13] = biological target: Aspartyl aminopeptidase (Plasmodium falciparum 3D7, UniProt Q8I2J3)
Chain of Aspartyl aminopeptidase (Q8I2J3 whole entry): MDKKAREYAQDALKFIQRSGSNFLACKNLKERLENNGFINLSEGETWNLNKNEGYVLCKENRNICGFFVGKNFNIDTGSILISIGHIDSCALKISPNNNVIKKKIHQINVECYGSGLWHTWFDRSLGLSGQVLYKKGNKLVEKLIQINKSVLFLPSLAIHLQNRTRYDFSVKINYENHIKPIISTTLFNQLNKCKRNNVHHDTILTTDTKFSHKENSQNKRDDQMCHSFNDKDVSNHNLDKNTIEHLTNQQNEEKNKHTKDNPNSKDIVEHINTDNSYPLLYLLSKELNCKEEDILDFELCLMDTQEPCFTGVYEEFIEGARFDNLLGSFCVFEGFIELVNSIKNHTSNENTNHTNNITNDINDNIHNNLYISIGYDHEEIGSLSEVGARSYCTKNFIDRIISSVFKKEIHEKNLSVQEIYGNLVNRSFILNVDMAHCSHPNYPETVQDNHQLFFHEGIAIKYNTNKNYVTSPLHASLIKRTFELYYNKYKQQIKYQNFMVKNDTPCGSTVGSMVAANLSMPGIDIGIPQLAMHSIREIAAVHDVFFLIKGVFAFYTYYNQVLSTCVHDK

[14] = biological target: Procathepsin L (Homo sapiens, UniProt P07711)
Chain of Procathepsin L (P07711 whole entry): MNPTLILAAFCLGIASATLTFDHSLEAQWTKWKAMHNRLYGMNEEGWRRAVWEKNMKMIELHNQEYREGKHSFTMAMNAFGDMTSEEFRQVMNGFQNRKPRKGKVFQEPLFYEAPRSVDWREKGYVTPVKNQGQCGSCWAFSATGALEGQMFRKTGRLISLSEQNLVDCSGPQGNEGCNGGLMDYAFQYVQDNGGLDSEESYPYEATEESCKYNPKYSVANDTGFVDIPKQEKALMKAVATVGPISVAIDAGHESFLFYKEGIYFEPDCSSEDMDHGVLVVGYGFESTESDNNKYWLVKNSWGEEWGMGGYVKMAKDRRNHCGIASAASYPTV

[15] = biological target: T1, Mannose-6-phosphate isomerase (Homo sapiens, UniProt P34949); experiment: inhibitors of human PMI, primary screen, biochemical, fluorescence intensity, coupled assay (AID 1209)
T1 sequence (P34949 whole entry): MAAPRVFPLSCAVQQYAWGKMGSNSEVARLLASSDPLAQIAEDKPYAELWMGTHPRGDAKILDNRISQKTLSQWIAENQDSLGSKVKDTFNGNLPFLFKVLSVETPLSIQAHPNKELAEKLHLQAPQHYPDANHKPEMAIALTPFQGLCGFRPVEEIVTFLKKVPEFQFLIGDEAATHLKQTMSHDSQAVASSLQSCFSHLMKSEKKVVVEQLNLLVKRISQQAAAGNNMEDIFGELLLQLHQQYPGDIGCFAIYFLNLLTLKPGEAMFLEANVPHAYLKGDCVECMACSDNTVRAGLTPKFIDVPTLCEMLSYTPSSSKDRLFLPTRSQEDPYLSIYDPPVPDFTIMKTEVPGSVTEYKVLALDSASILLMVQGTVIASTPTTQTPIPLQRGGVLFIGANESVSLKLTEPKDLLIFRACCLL

[16] = biological target: Glucose-6-phosphate 1-dehydrogenase (Homo sapiens, UniProt P11413); experiment: human G6PD enzyme inhibitors, dose response, selectivity assay for P. falciparum G6PD inhibitor project, biochemical, fluorescence (AID 504792); format: functional
[17] = NIH-3T3 fibroblast cytotoxicity, dose response, cytotoxicity control, cell-based, fluorescence, Alamar Blue, secondary assay (AID 2327); format: functional;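 further: NIH-3T3 mouse fibroblasts cultured with fluconazole at 8 µg/mL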
[18] = insulin promoter down-regulators in MIN6 cells, imaging, high-content screening, mouse beta cells (AID 1628); format: functional
[19] = cytotoxicity in MIN6 insulinoma cells, dose response, cytotoxicity control, cell-based, mouse insulinoma (AID 2122); format: functional;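 further: confirmatory high-throughput counterscreen run to flag cytotoxic compounds; mouse MIN-6 beta cells carrying an insulin promoter eGFP reporter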
[20] = C. albicans growth with fluconazole, confirmation, fluorescence, retest (AID 2467); format: functional, cell-based
[21] = inhibitors of intracellular T. cruzi replication, confirmation, NIH3T3 host cells, beta-gal luminescence (AID 2044); format: functional, cell-based;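 further: intracellular parasites grown in NIH/3T3 mouse fibroblasts as host cells; luminescent beta-galactosidase reporter signal from transgenic T. cruzi replicating inside host cells; inhibitors lower the luminescence signal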
[22] = cytotoxicity toward NIH3T3 fibroblasts, dose response, counter-screen, cell-based, ATP luminescence, mouse fibroblasts (AID 2010); format: functional;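 further: cells exposed to compound for about 90 hours before reading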
[23] = biological target: C-C chemokine receptor type 6 (Homo sapiens, UniProt P51684); experiment: CCR6 receptor antagonists, dose response, cell-based, luminescent beta-arrestin readout (AID 504728); format: functional
Chain of C-C chemokine receptor type 6 (P51684 whole entry): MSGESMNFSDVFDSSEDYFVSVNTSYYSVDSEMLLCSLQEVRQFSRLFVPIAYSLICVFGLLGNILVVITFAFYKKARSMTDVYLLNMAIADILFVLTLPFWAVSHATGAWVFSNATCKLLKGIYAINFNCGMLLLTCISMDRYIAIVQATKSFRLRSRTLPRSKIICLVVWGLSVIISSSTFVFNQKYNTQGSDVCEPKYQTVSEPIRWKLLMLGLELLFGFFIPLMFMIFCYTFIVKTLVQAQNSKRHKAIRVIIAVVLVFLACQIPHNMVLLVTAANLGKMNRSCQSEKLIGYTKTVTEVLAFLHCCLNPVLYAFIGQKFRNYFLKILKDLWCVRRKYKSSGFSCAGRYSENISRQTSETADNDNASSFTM

[24] = biological target: Beta-galactosidase (Escherichia coli, UniProt Q8VNN2); experiment: beta-galactosidase enzyme inhibitors and activators, dose response, artefact control for CCR6 antagonist project, biochemical, E. coli enzyme, set 3 (AID 504712); format: functional
[25] = biological target: Paired box protein Pax-8 (Homo sapiens, UniProt Q06710); experiment: inhibitors of PAX8-driven TPO luciferase reporter, dose response, RMG-I cells, cherry-pick (AID 687027); format: functional, cell-based;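 further: luciferase reporter driven by Pax8 target thyroperoxidase promoter measured by SteadyGlo luminescence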
Chain of Paired box protein Pax-8 (Q06710 whole entry): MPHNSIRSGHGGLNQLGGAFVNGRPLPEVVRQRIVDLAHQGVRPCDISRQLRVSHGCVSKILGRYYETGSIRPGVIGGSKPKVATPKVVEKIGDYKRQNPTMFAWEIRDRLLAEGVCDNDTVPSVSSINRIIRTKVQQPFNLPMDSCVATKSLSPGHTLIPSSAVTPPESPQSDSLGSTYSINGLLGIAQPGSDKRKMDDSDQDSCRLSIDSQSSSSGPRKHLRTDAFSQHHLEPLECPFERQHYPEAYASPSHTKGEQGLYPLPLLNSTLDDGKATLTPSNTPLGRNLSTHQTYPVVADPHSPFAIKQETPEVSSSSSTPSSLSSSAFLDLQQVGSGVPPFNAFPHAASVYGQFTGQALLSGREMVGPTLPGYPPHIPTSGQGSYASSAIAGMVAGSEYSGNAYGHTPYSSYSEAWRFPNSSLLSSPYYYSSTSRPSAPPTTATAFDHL

[26] = non-specific cell cytotoxicity, dose response, cytotoxicity control for PAX8 inhibitor project, plate reader, dry powder samples (AID 743021); format: functional, cell-based
[27] = biological target: Mothers against decapentaplegic homolog 3 (Homo sapiens, UniProt P84022); experiment: Smad3 binding inhibitors, lysate ELISA, dose response, cell lysate, secondary confirmation, chemiluminescent ELISA, HEK293 lysate (AID 1058); format: functional
Chain of Mothers against decapentaplegic homolog 3 (P84022 whole entry): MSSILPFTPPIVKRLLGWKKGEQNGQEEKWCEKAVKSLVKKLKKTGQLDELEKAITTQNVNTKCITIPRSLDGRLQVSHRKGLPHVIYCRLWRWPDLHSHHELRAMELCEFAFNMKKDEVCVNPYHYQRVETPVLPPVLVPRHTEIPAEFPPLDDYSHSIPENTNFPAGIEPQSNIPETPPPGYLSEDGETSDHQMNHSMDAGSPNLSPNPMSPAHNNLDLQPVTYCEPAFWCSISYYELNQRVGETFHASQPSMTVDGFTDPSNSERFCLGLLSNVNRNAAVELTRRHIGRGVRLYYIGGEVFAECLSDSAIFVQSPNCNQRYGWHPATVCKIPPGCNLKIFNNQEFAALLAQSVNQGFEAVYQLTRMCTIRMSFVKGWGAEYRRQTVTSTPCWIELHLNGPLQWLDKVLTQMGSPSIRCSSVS

[28] = biological target: Alkaline phosphatase, placental type (Homo sapiens, UniProt P05187); experiment: PLAP enzyme inhibitors, confirmation, biochemical, luminescence (AID 1512); format: functional
[29] = biological target: T2, Tyrosine-protein phosphatase non-receptor type 7 (Homo sapiens, UniProt P35236); experiment: SAR analysis of chemical inhibitors of HePTP using a Fluorescent assay - Set 2. [Related pubchem assays (depositor defined):AID1059, AID1077, AID1661, AID2085, AID521]; format: functional
T2 sequence (P35236 whole entry): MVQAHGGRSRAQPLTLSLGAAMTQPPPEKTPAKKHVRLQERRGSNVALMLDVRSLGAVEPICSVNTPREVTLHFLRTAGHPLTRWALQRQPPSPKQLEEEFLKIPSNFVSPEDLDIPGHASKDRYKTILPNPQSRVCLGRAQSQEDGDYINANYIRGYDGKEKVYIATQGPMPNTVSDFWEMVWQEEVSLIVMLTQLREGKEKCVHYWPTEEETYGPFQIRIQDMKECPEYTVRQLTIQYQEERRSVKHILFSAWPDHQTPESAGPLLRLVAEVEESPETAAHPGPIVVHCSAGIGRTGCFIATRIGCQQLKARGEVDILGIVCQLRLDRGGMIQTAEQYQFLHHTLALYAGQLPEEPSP

[30] = biological target: Dual specificity protein phosphatase 3 (Homo sapiens, UniProt P51452); experiment: SAR VHR1 Fluorescent Assay for In Vitro dose response studies Set 2. [Related pubchem assays (depositor defined):AID1654, AID1661, AID1878]; format: functional
Chain of Dual specificity protein phosphatase 3 (P51452 whole entry): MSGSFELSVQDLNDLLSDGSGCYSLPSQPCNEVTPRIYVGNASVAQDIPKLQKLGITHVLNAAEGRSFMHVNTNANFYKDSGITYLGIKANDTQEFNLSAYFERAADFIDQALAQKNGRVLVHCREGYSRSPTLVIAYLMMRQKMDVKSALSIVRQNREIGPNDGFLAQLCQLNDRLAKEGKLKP

[31] = biological target: T3, Intestinal-type alkaline phosphatase (Homo sapiens, UniProt P09923); experiment: Dose Response confirmation of uHTS hits from a small molecule inhibitors of human intestinal alkaline phosphatase via a luminescent assay. [Related pubchem assays (depositor defined):AID2544, AID2574]; format: functional
T3 sequence (P09923 whole entry): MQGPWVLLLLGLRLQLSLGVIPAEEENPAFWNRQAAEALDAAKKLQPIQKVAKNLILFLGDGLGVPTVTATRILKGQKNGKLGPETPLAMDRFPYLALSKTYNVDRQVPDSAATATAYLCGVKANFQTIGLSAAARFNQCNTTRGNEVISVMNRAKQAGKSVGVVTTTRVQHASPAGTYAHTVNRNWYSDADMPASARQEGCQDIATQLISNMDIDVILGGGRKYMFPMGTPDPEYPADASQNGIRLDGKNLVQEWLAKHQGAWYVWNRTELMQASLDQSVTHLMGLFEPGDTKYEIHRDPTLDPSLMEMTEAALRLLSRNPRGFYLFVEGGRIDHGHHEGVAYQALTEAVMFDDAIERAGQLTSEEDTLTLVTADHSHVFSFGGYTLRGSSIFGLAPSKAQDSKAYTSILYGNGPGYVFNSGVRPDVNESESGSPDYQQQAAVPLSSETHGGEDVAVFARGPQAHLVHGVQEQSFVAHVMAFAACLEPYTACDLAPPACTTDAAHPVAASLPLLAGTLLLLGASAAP

[32] = biological target: T3, Intestinal-type alkaline phosphatase; experiment: human intestinal alkaline phosphatase activators, dose response, biochemical, luminescence, uHTS hits (AID 463120); format: functional

Chain of Potassium voltage-gated channel subfamily KQT member 2 (O88943 whole entry): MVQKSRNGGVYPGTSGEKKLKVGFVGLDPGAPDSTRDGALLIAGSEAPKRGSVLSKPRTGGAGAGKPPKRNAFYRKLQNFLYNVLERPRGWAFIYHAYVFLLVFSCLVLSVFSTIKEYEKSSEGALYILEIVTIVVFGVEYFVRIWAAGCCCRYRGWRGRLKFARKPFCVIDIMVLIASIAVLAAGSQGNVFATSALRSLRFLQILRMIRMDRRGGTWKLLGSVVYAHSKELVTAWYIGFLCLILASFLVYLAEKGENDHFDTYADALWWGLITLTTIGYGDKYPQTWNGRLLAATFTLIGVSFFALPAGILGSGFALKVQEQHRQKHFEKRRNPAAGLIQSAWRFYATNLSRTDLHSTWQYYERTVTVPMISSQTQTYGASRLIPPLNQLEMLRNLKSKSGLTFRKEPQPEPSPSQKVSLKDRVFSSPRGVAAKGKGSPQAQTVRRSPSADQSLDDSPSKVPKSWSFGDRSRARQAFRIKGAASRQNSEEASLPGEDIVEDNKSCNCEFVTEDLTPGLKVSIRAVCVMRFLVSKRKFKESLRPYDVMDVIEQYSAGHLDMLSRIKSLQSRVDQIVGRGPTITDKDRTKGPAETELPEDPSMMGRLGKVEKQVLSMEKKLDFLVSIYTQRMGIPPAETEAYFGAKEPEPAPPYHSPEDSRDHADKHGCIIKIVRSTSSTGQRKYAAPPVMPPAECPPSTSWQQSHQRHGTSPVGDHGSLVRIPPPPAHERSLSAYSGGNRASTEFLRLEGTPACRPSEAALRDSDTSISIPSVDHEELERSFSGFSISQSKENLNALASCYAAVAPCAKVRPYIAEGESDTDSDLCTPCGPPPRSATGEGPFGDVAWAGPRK

Compound: CCN(CC)c1ccc(C=C(c2nnnn2-c2ccccc2)c2nnnn2-c2ccccc2)cc1
- IC50 [2]: > 55.7 µM (not active)
- IC50 [3]: > 55.9 µM (not active)

Compound: CCc1cc(-c2[nH]nc(C)c2Oc2ccc(C(C)C)cc2)c(O)cc1O
- CC50 [4]: 15.9 µM (active)
- EC50 [5]: 2.28 µM (active)
- EC50 [6]: 4.99 µM (active)
- AC50 [7]: 3.13 µM (active)
- Absolute IC50 (XBP1) [8]: < 10 µM

Compound: CC(C)[C@@H](CC(=O)N[C@@H]1CCNC[C@H]1C(=O)N[C@H](CC(=O)N[C@@H](CCC(=O)O)CC(=O)O)Cc1ccccc1)NC(=O)C[C@H](CO)NC(=O)[C@@H]1CNCC[C@H]1N
- AC50 [9]: 39.8 µM (inconclusive)
- AC50 [10]: 25.1 µM (inconclusive)

Compound: CC1(C)CC2(CC(c3ccccc3F)c3ccc(O)c(O)c3O2)NC(=S)N1 (centres undefined)
- IC50 [13]: 1.76 µM (active)
- IC50 [14]: > 59.6 µM (not active)
- IC50 [15]: 39.9 µM (active)
- IC50 [16]: > 80 µM (inactive)

Compound: COc1cccc(/C=N/Nc2nc(Nc3ccc([N+](=O)[O-])cc3)nc(N3CCCC3)n2)c1O
- EC50 [17]: 4.69 µM (active)
- IC50 [18]: 2.8 µM (active)
- EC50 [5]: 3.77 µM (active)
- IC50 [19]: 2.71 µM (active)
- EC50 [20]: > 38 µM (not active)
- EC50 [21]: 0.866 µM (active)
- EC50 [22]: 8.48 µM (active)
- EC50 [6]: 12.1 µM (active)
- IC50 [23]: 1.64 µM (active)
- IC50 [24]: > 66.6 µM (inactive)
- AC50 [25]: 5.65 µM (active)
- AC50 [26]: 20.9 µM (active)

Compound: COc1cccc(C(c2cc3c(cc2O)OCO3)N2CCCC2)c1O (centres undefined)
- IC50 [27]: < 2.5 µM (not active)

Compound: Cc1ccc(NC(=S)NNC(=O)c2ccccc2OC(F)F)cc1
- IC50 [28]: > 100 µM (inactive)
- IC50 [29]: > 100 µM (inactive)
- IC50 [30]: > 100 µM (inactive)

Next, values leading:

- EC50 [1]: 6.85 µM (active)
Compound: O=C(Nc1ccc(Cl)cc1)Nc1cccnc1

- EC50 [11]: > 49.7 µM (inactive)
- EC50 [12]: > 49.7 µM (inactive)
Compound: Cc1cccc(NC(=O)CCCOc2cc(=O)n(C)c3ccccc23)n1

- IC50 [31]: > 100 µM (inactive)
- EC50 [32]: > 100 µM (inactive)
Compound: CC(=O)Nc1ccc(NC(=O)C2CC(=O)N(C(C)C)C2)cc1 (centres undefined)

From ChEMBL document CHEMBL1201862, “PubChem BioAssay data set” (2004)
